From ChEMBL document CHEMBL1201862, “PubChem BioAssay data set” (2004)
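Assay format: 96-well plates, 48-hour exposure. Abbreviation: GI50, concentration required for 50% inhibition of growth.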 Activity calls are given as the source filed them. Cut-off read from the data, not from the text of the source: active = GI50 up to about 1.1 µM and inactive = higher.

Columns and labels:
Assay in all cases: NCI anticancer screen, dose series, 48 h
786-0 = test system: 786-0
ACHN = test system: ACHN
CAKI-1 = test system: CAKI-1
COLO 205 = test system: COLO 205
LOX IMVI = test system: LOX IMVI
M14 = test system: M14
M19-MEL = test system: M19-MEL
NCI-H23 = test system: NCI-H23
NCI-H522 = test system: NCI-H522
SF-539 = test system: SF-539
SK-MEL-2 = test system: SK-MEL-2
SN12C = test system: SN12C
TK-10 = test system: TK-10
MDA-MB-435 = test system: MDA-MB-435
NCI/ADR-RES = test system: NCI/ADR-RES
PC-3 = test system: PC-3
RPMI-8226 = test system: RPMI-8226
RXF 393 = test system: RXF 393
T47D = test system: T47D
UO-31 = test system: UO-31

Measured: GI50

CC(C)OC(=O)C1=C(O)c2ccccc2S(=O)(=O)N1
inactive: 786-0 > 100 µM | ACHN > 100 µM | CAKI-1 > 100 µM | COLO 205 > 100 µM | LOX IMVI > 100 µM | M14 > 100 µM | M19-MEL > 100 µM | NCI-H23 > 100 µM | NCI-H522 > 100 µM | SF-539 > 100 µM | SK-MEL-2 > 100 µM | SN12C > 100 µM | TK-10 > 100 µM

CC(=O)Oc1ccc2c(c1)CC[C@@H]1C2[C@@H](O[N+](=O)[O-])C[C@@]2(C)C1CC[C@@H]2O (stereo partly drawn)
inactive: 786-0 33.8 µM | ACHN 61.1 µM | CAKI-1 78 µM | COLO 205 50.8 µM | LOX IMVI 27.7 µM | M14 28.3 µM | MDA-MB-435 7.31 µM | NCI-H23 42.9 µM | NCI-H522 21.1 µM | NCI/ADR-RES 26.9 µM | PC-3 47.3 µM | RPMI-8226 21 µM | RXF 393 38.7 µM | SF-539 25.6 µM | SK-MEL-2 32.1 µM | SN12C 34.5 µM | T47D 47.4 µM | TK-10 49.8 µM | UO-31 43.9 µM

FC(F)(F)C1(C(F)(F)F)C2CCC3(CC(F)(F)C(F)(F)S3)C1C2 (stereo not drawn)
inactive: 786-0 > 100 µM | ACHN 37.8 µM | CAKI-1 98.2 µM | COLO 205 31.5 µM | LOX IMVI 25.8 µM | M14 > 100 µM | MDA-MB-435 86.7 µM | NCI-H23 35.7 µM | NCI-H522 56.2 µM | NCI/ADR-RES > 100 µM | PC-3 37.2 µM | RPMI-8226 28.2 µM | RXF 393 31.8 µM | SF-539 > 100 µM | SK-MEL-2 22.6 µM | SN12C > 100 µM | T47D > 100 µM | TK-10 > 100 µM | UO-31 28.8 µM

Cn1c(=O)c2c(nc(C(=N)SCC(=O)O)n2C)n(C)c1=O
inactive: 786-0 45.7 µM | ACHN 41 µM | CAKI-1 26 µM | COLO 205 31.3 µM | LOX IMVI 48.1 µM | M14 43.5 µM | MDA-MB-435 29.2 µM | NCI-H23 27.7 µM | NCI-H522 41.9 µM | NCI/ADR-RES 33.3 µM | PC-3 48.4 µM | RPMI-8226 42.2 µM | RXF 393 53.1 µM | SF-539 32.8 µM | SK-MEL-2 39.2 µM | SN12C 45.9 µM | T47D 33.2 µM | TK-10 40.6 µM | UO-31 41.8 µM

Nc1c(C(=O)c2ccc(Cl)cc2)[nH]c(Nc2ccc(Cl)cc2)c1C(=S)Nc1ccccc1
inactive: 786-0 2.9 µM | ACHN 2.21 µM | CAKI-1 6.05 µM | COLO 205 4.13 µM | LOX IMVI 3.64 µM | M14 11.9 µM | MDA-MB-435 7.14 µM | NCI-H23 3.3 µM | NCI-H522 4.83 µM | NCI/ADR-RES 2.53 µM | PC-3 10.6 µM | RPMI-8226 14.5 µM | RXF 393 2.7 µM | SF-539 5.41 µM | SK-MEL-2 11.7 µM | SN12C 7.71 µM | T47D 4.11 µM | TK-10 5.4 µM | UO-31 3.73 µM

CCOC(=O)/C=C(\C(=O)OCC)n1cc(C)c(=O)n(Cc2cnnn2CCCCOC(C)=O)c1=O
inactive: 786-0 2.96 µM | ACHN 2.06 µM | CAKI-1 3.23 µM | COLO 205 2.09 µM | LOX IMVI 4.06 µM | M14 20.9 µM | MDA-MB-435 7.69 µM | NCI-H23 17.1 µM | NCI-H522 1.38 µM | NCI/ADR-RES 8.79 µM | PC-3 16.4 µM | RPMI-8226 7.36 µM | RXF 393 2.7 µM | SF-539 2.36 µM | SK-MEL-2 22.1 µM | SN12C 12.1 µM | T47D 21.7 µM | TK-10 5.94 µM | UO-31 15 µM

C#CCN(Cc1ccc2nc(-c3ccccc3)c(Cl)nc2c1)c1ccc(Cl)c(Cl)c1
inactive: 786-0 > 100 µM | ACHN > 100 µM | CAKI-1 > 100 µM | COLO 205 > 100 µM | LOX IMVI > 100 µM | M14 > 100 µM | M19-MEL > 100 µM | NCI-H23 > 100 µM | NCI-H522 > 100 µM | SF-539 > 100 µM | SK-MEL-2 > 100 µM | SN12C > 100 µM | TK-10 > 100 µM | UO-31 > 100 µM

O=C1c2n[nH]nc2C(=O)c2n[nH]nc21
inactive: 786-0 > 100 µM | ACHN > 100 µM | CAKI-1 > 100 µM | COLO 205 > 100 µM | LOX IMVI > 100 µM | M14 > 100 µM | MDA-MB-435 > 100 µM | NCI-H23 > 100 µM | NCI-H522 > 100 µM | NCI/ADR-RES > 100 µM | PC-3 > 100 µM | RPMI-8226 > 100 µM | RXF 393 > 100 µM | SF-539 > 100 µM | SK-MEL-2 > 100 µM | SN12C > 100 µM | T47D > 100 µM | TK-10 > 100 µM | UO-31 > 100 µM

CN(C)c1ccc2c3c(c(=O)oc2c1)CCC3
inactive: 786-0 58.6 µM | ACHN 58.5 µM | CAKI-1 43.8 µM | COLO 205 33.1 µM | LOX IMVI 40.6 µM | M14 92.3 µM | MDA-MB-435 57.9 µM | NCI-H23 74 µM | NCI-H522 26.7 µM | NCI/ADR-RES 65.8 µM | PC-3 90.4 µM | RPMI-8226 37.6 µM | RXF 393 64 µM | SF-539 > 100 µM | SK-MEL-2 > 100 µM | SN12C > 100 µM | T47D 36.1 µM | TK-10 65.3 µM | UO-31 > 100 µM

CCCCCCCCCCCCCCCC(=O)N(CCCCCCCCCCC(=O)O)CC(O)C(O)C(OC1OC(CO)C(O)C(O)C1O)C(O)CO (stereo not drawn)
inactive: 786-0 74.5 µM | ACHN > 100 µM | CAKI-1 64 µM | COLO 205 18.4 µM | LOX IMVI 19.5 µM | M14 20.7 µM | MDA-MB-435 49.4 µM | NCI-H23 40.9 µM | NCI-H522 39.3 µM | NCI/ADR-RES 25.7 µM | PC-3 37.8 µM | RPMI-8226 29.2 µM | RXF 393 48.1 µM | SF-539 21.3 µM | SK-MEL-2 19 µM | SN12C 20.5 µM | T47D 40.7 µM | TK-10 > 100 µM | UO-31 35.1 µM

O=C(CSCC(=O)N/N=C/c1ccccc1)N/N=C\c1ccccc1
inactive: 786-0 > 100 µM | ACHN > 100 µM | CAKI-1 > 100 µM | COLO 205 > 100 µM | LOX IMVI > 100 µM | M14 > 100 µM | MDA-MB-435 > 100 µM | NCI-H23 > 100 µM | NCI-H522 > 100 µM | NCI/ADR-RES > 100 µM | PC-3 > 100 µM | RPMI-8226 38.1 µM | RXF 393 65.8 µM | SF-539 81.3 µM | SK-MEL-2 > 100 µM | SN12C > 100 µM | T47D 77.6 µM | TK-10 > 100 µM | UO-31 > 100 µM
